Results published in ChEMBL document CHEMBL6127051, “Hydrazinecarboxamides: Comprehensive review of their anticancer, anticonvulsive, anti-inflammatory, enzyme inhibition, antioxidant and other activities” (Eur J Med Chem, 2024).
pEC50, pIC50: −log10 of the molar value. Converted amounts (≈) assume the structure as drawn. Each block holds one compound with its values, some of them ahead of it.

Columns and labels:
[1] = tested on: MCF7; assay: Anticancer activity against human MCF7 cells assessed as reduction in cell growth measured after 3 days by MTT assay; type: functional, cell-based; conditions: MCF7, 72 h
[2] = tested on: A549; assay: Antiproliferative activity against human A549 cells; type: functional, cell-based
[3] = tested on: MCF7; assay: Antiproliferative activity against human MCF7 cells assessed as reduction in cell viability incubated for 72 hrs by MTT assay; type: functional, cell-based; conditions: MCF7, 72 h
[4] = tested on: A549; assay: Antiproliferative activity against human A549 cells assessed as reduction in cell viability by MTT assay; type: functional, cell-based
[5] = tested on: MCF7; assay: Cytotoxicity against human MCF7 cells assessed as inhibition of cell growth; type: functional, cell-based
[6] = tested on: PC-3; assay: Cytotoxicity against human PC-3 cells; type: functional, cell-based
[7] = Cytotoxicity against human HEK cells; type: toxicity, cell-based
[8] = tested on: PC-3; assay: Cytotoxicity against human PC-3 cells assessed as inhibition of cell growth; type: functional, cell-based
[9] = target: T1, Retinoic acid receptor RXR-alpha (Homo sapiens, UniProt P19793); assay: Antagonist activity at RXRalpha (unknown origin) by Alpha Screen assay
T1 sequence (P19793 whole entry): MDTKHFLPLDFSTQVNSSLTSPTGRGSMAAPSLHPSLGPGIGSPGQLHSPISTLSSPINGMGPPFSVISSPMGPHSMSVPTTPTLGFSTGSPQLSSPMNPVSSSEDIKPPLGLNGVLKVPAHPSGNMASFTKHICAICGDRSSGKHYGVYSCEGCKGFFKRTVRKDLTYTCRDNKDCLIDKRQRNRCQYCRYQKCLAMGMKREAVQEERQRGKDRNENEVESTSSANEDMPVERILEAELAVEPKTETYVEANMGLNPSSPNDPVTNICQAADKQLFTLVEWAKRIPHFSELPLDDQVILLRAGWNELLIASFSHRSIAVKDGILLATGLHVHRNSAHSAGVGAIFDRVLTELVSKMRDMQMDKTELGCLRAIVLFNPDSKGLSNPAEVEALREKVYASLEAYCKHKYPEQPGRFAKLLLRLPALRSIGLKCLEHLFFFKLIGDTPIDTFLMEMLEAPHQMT

[10] = tested on: A549; assay: Antiproliferative activity against human A549 cells assessed as reduction in cell viability measured for 24 hrs by MTT assay; conditions: A549, 24 h
[11] = tested on: HepG2; assay: Antiproliferative activity against human HepG2 cells assessed as reduction in cell viability measured for 24 hrs by MTT assay; conditions: HepG2, 24 h
[12] = target: Cholinesterase (Equus caballus, UniProt P81908); assay: Inhibition of equine serum BChE using butyrylthiocholine iodide as substrate measured after 15 mins by Ellman's method
[13] = tested on: MCF7; assay: Cytotoxicity against human MCF7 cells assessed as reduction in cell growth; type: functional, cell-based
[14] = tested on: Mus musculus; assay: Anticonvulsant activity in ip dosed MES induced Kunming mouse seizure model; type: functional
[15] = tested on: A549; assay: Anticancer activity against human A549 cells assessed as inhibition of cell growth at 3 uM incubated for 48 hrs by MTT assay relative to control; type: functional; parameters: scale not given: the % may be the effect or the level left
[16] = tested on: PC-3; assay: Anticancer activity against human PC-3 cells assessed as inhibition of cell growth at 3 uM incubated for 48 hrs by MTT assay relative to control; type: functional; parameters: scale not given: the % may be the effect or the level left
[17] = Antioxidant activity assessed as DPPH radical scavenging activity at 10 ug/ml; type: functional; conditions: dose 10.0 µg/ml
[18] = tested on: HepG2; assay: Antiproliferative activity against human HepG2 cells assessed as reduction in cell viability incubated for 72 hrs by MTT assay; type: functional, cell-based; conditions: HepG2, 72 h
[19] = tested on: MCF7; assay: Antiproliferative activity against human MCF7 cells assessed as reduction in cell viability measured for 72 hrs by MTT assay; type: functional, cell-based; conditions: MCF7, 72 h
[20] = tested on: Mus musculus; assay: Anticonvulsant activity in po dosed scPTZ induced mouse model measured after 4 hrs; type: functional

Cholinesterase, sequence (P81908 whole entry): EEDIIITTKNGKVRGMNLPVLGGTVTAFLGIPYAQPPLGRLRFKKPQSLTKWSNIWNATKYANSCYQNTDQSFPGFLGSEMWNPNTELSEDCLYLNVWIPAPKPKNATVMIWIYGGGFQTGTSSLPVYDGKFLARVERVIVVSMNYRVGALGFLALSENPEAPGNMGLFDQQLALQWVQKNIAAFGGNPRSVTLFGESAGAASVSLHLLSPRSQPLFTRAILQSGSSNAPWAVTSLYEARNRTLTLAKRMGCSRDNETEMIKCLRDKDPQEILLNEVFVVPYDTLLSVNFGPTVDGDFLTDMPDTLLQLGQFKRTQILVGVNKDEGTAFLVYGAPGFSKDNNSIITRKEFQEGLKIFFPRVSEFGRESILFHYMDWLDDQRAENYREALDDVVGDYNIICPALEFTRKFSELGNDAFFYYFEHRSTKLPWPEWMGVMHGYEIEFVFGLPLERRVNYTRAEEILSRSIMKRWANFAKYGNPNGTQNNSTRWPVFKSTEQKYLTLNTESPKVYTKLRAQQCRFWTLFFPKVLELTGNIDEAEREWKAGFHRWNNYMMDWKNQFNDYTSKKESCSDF

SMILES: CCc1nc2cc(Cl)c(Cl)cc2n1CC(=O)NNC(=O)Nc1ccccc1
- IC50 [5]: 25.2 µg/mL (≈ 62 µM)
- IC50 [6]: 25.2 µg/mL (≈ 62 µM)
- IC50 [7]: 127 µg/mL (≈ 312 µM)
- IC50 [8]: 25.2 µg/mL (≈ 62 µM)

SMILES: CCCCCCCCCCCCCCCNC(=O)NNC(=O)c1ccc(C(F)(F)F)cc1
- pIC50 [12]: 4.24

SMILES: O=C(NCCc1ccccc1)NNC(=O)n1nnc2ccccc21
- pIC50 [13]: 4.10

SMILES: Cc1ccc(N(C(=O)CNN2C(=O)C(=O)N(C(C)C)C2=O)C2(C(N)=O)CCCCC2)cc1
- ED50 [14]: 44.5 mg/kg

SMILES: COc1ccc(C(C)(C)C)cc1NC(=O)NNC1=NS(=O)(=O)c2ccccc2N1c1ccccc1
- Activity [15]: 99%
- Activity [16]: >=71%

SMILES: CC(C)N1C(=O)C(=O)N(NCC(=O)N(c2ccccc2)C2(C(N)=O)CCCC2)C1=O
- ED50 [14]: 34.4 mg/kg

SMILES: COc1cc(/C=C2\N=C(C)N(NC(=O)N3c4ccccc4C=Cc4ccccc43)C2=O)cc(OC)c1OC
- Activity [17]: 73.9%

SMILES: O=C(NNC1=NS(=O)(=O)c2ccccc2N1c1ccccc1)Nc1cc(C(F)(F)F)cc(C(F)(F)F)c1
- Activity [15]: 99%
- Activity [16]: >=71%

SMILES: COc1cc(/C=C2\N=C(C)N(NC(=O)N3c4ccccc4C=Cc4ccccc43)C2=O)ccc1O
- Activity [17]: 73.9%

SMILES: CC1=N/C(=C\c2ccc([N+](=O)[O-])cc2)C(=O)N1NC(=O)N1c2ccccc2C=Cc2ccccc21
- Activity [17]: 73.9%

SMILES: COc1ccc(/C=C2\N=C(C)N(NC(=O)N3c4ccccc4C=Cc4ccccc43)C2=O)cc1
- Activity [17]: 73.9%

SMILES: CC1(C)CC12NC(=O)N(Nc1ccc([N+](=O)[O-])cc1[N+](=O)[O-])C2=O (centres undefined)
- ED50 [20]: 126 mg/kg

SMILES: CC1(C)CC12NC(=O)N(Nc1ccc(F)cc1)C2=O (centres undefined)
- ED50 [20]: 61.8 mg/kg

SMILES: CNC(=O)NNC(=O)c1ccc(Cl)cc1
- pIC50 [12]: 4.66

SMILES: O=C(NNC(=O)n1nnc2ccccc21)NC1CCCCC1
- pIC50 [13]: 4.10

SMILES: CCCCCCCCCCCCCNC(=O)NNC(=O)c1cccc(Br)c1
- pIC50 [12]: 4.66

Continued, values first:

- pIC50 [1]: 7.52
SMILES: COc1ccc(/C=C/C(=O)NNC(=O)NCCCC(C)Nc2cc(OC)cc3cccnc23)cc1 (centres undefined)

- pIC50 [2]: 5.82
- pIC50 [3]: 6.00
- pIC50 [4]: 5.40
SMILES: COc1cc(NC(C)CCCNC(=O)NNC(=O)NCCc2ccccc2)c2ncccc2c1 (centres undefined)

- pIC50 [2]: 5.82
- pIC50 [3]: 6.00
- pIC50 [4]: 5.40
SMILES: COc1cc(NC(C)CCCNC(=O)NNC(=O)NC2CCCC2)c2ncccc2c1 (centres undefined)

- pEC50 [9]: 5.98
- pIC50 [10]: 5.08
- pIC50 [11]: 5.66
SMILES: O=C(NCCc1ccccc1)NNC(=O)c1ccc(Nc2nccc(-c3ccncc3)n2)cc1

- pIC50 [2]: 5.82
- pIC50 [3]: 6.00
- pIC50 [4]: 5.40
SMILES: COc1cc(NC(C)CCCNC(=O)NNC(=O)NOC(=O)c2ccccc2)c2ncccc2c1 (centres undefined)

- pIC50 [1]: 7.52
SMILES: COc1cc(NC(C)CCCNC(=O)NNC(=O)/C=C/c2cccc(C(F)(F)F)c2)c2ncccc2c1 (centres undefined)

- pIC50 [18]: 4.09
SMILES: Cc1ccc(S(=O)(=O)NC(=O)NNC(=O)Cn2c(C(C)C)nc3ccccc32)cc1

- pEC50 [9]: 5.98
- pIC50 [10]: 5.08
- pIC50 [11]: 5.66
SMILES: CC(C)(C)NC(=O)NNC(=O)c1ccc(Nc2nccc(-c3ccncc3)n2)cc1

- pIC50 [1]: 7.52
SMILES: COc1cc(NC(C)CCCNC(=O)NNC(=O)/C=C/c2ccc(Cl)cc2)c2ncccc2c1 (centres undefined)

- pIC50 [1]: 7.52
SMILES: COc1cc(NC(C)CCCNC(=O)NNC(=O)/C=C/c2ccc3c(c2)OCO3)c2ncccc2c1 (centres undefined)

- pIC50 [1]: 7.52
SMILES: COc1cc(NC(C)CCCNC(=O)NNC(=O)/C=C/c2cc(C(F)(F)F)cc(C(F)(F)F)c2)c2ncccc2c1 (centres undefined)

- pIC50 [1]: 7.52
SMILES: COc1cc(NC(C)CCCNC(=O)NNC(=O)/C=C/c2ccccc2)c2ncccc2c1 (centres undefined)

- pIC50 [19]: 5.92
SMILES: O=C(NNC(=O)c1cc2ccccc2[nH]1)Nc1ccc(Cl)c(C(F)(F)F)c1

- pIC50 [2]: 5.82
- pIC50 [3]: 6.00
- pIC50 [4]: 5.40
SMILES: COc1cc(NC(C)CCCNC(=O)NNC(=O)NC(c2ccccc2)c2ccccc2)c2ncccc2c1 (centres undefined)

- pIC50 [19]: 5.92
SMILES: O=C(NNC(=O)c1cc2ccccc2[nH]1)NC1CCCCC1

- pIC50 [11]: 4.77
SMILES: CNC(=O)c1cc(Oc2ccc(NC(=O)Nc3ccc(Cl)c(C(F)(F)F)c3)cc2)ccn1 [SORAFENIB]
